Data taken from paper PMC13181761, “New Analogs of the Compstatin Family of Clinical Complement Inhibitors with Low Picomolar Target Affinity” (Journal of Medicinal Chemistry, 2026).
Where two headings read alike, the source gives them in different places. Where a SMILES comes first, the peptide text is derived from it. Bridges are numbered along the chain shown (N, C = ends). [ ]: non-standard residue; d: D form. Trp(1-Me) = Cn1cc(C[C@H](N)C(=O)O)c2ccccc21; Bta = N[C@@H](Cc1csc2ccccc12)C(=O)O; Nva(3-Et) = CCC(CC)[C@H](N)C(=O)O; Asu = N[C@@H](CCCCCC(=O)O)C(=O)O; NMeI = CC[C@H](C)[C@H](NC)C(=O)O; aIle = CC[C@@H](C)[C@H](N)C(=O)O; Orn = NCCC[C@H](N)C(=O)O; Sar = CNCC(=O)O

Target: T1, human C3b (Homo sapiens, UniProt P01024)
T1 construct: purchased Complement Technology, Tyler, TX, USA
T1 sequence (P01024 23-667 limits assumed): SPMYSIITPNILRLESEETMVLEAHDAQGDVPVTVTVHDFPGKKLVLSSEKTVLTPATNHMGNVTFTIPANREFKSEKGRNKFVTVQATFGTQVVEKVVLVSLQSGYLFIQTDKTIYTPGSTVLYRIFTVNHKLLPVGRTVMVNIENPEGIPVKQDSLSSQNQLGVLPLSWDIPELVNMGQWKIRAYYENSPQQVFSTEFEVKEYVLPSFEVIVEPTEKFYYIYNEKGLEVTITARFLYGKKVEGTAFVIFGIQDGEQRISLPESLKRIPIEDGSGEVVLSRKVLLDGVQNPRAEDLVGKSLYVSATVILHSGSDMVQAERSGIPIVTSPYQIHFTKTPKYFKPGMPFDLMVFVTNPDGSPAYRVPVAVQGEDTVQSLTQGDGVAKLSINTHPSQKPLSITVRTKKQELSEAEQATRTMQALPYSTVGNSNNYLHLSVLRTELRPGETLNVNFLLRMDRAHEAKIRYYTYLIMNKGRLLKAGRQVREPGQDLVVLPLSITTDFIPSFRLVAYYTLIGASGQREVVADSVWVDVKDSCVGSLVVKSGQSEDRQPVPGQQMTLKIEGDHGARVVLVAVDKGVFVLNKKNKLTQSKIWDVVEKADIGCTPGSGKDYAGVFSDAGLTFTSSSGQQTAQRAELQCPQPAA
T1 sequence (P01024 749-1663 partner limits assumed): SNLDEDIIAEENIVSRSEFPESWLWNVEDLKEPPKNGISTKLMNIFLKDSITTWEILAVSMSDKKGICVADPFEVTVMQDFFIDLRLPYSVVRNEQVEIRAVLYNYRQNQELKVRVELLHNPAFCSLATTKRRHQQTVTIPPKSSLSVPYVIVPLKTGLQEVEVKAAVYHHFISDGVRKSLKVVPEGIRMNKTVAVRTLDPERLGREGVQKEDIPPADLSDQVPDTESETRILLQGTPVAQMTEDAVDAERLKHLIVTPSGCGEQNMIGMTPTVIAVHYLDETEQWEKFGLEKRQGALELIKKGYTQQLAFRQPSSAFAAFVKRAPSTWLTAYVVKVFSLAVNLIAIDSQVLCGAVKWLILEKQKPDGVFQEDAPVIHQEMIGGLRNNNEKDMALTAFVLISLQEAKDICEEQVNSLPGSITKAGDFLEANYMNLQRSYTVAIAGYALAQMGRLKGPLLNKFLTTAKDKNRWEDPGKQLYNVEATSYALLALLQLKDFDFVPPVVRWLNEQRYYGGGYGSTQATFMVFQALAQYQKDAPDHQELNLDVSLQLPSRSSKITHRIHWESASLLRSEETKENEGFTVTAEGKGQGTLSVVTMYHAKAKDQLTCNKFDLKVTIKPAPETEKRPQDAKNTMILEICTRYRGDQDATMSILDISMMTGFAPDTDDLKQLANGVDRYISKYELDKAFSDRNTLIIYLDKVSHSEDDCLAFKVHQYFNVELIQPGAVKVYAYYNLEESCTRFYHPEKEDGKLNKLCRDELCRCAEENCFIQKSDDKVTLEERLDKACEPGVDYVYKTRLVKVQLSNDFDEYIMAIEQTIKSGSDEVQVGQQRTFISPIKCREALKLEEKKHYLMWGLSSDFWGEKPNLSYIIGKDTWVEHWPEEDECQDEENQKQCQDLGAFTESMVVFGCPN
Assay: SPR kinetic binding to immobilized human C3b
Settings: for fold affinity drop / weaker affinity compared with Cp01: K D ratio vs Cp01
Experimental: Experiments were conducted at 25 °C in HBST buffer (10 mM HEPES, 150 mM NaCl, and 0.05% Tween-20, pH 7.4; XanTec bioanalytics). Human C3b (Complement Technology, Tyler, TX, USA) was immobilized via amine-reactive coupling. […] Individual peptide samples were injected for 120 s, followed by a 180 s dissociation phase. […] Signals from the reference cell and buffer blank injections were subtracted within each dilution series to correct for buffer effects and injection artifacts. Data were fitted to a Langmuir 1:1 binding model to calculate association (k a) and dissociation (k d) rate constants, and the equilibration constant K D is calculated based on the equation: K D = k d/k a. In the case of Cp40 derivatives and Cp60, a single-cycle approach was used for kinetic analysis by injecting 5 increasing concentrations of each compound (0.5-40 nM) consecutively without a regeneration period in between injections. Individual injections within a cycle were 120 s long with a 5 min dissociation phase between injections. […] Analog Cp40 was included in each experimental series as a reference and internal control. Signals from the reference cell and buffer blank injections were subtracted to correct for buffer effects and injection artifacts. Kinetic data were processed in BiaEvaluation (Cytiva) using single-cycle evaluation by global fitting each data set to a Langmuir 1:1 binding model. The reported kinetic parameters (Tables and ) indicate the mean values and standard deviations of three independent experiments. SPR sensorgrams are provided in the Supporting Information.

[1] = SPR, 1:1 Langmuir fit, average of 3 independent experiments, SD in brackets
[2] = SPR, 1:1 Langmuir fit, average of 3 independent experiments, SD in brackets, read-out: K D, affinity hC3b
[3] = SPR screening at 2 and 1 μM, series up to 16 μM, read-out: affinity hC3b (class symbol N.B./W.B.)

SMILES | k a, affinity hC3b [1] | k d, affinity hC3b [1] | Kd [2] [nM] | Kd [3] [nM] | other results
CC[C@H](C)[C@H](NC(C)=O)C(=O)N[C@H]1CSSC[C@@H](C(=O)N[C@H](C(N)=O)[C@@H](C)O)NC(=O)[C@H](CCCNC(=N)N)NC(=O)[C@H](Cc2c[nH]cn2)NC(=O)[C@H](C)NC(=O)CNC(=O)[C@H](Cc2c[nH]c3ccccc23)NC(=O)[C@H](CO)NC(=O)[C@H](CCC(N)=O)NC(=O)[C@H](Cc2c[nH]c3ccccc23)NC(=O)[C@H](C(C)C)NC1=O [Cp01-Asp6Ser] (Ac-ICVWQSWGAHRCT-NH2; disulfide 2-12) | 3.1(0.9) 10^5 M^–1 s^–1 | 18(3) 10^–2 s^–1 | 609 |  | 
CC[C@H](C)[C@H](NC(C)=O)C(=O)N[C@H]1CSSC[C@@H](C(=O)N[C@H](C(N)=O)[C@@H](C)O)NC(=O)[C@H](CCCNC(=N)N)NC(=O)[C@H](Cc2c[nH]cn2)NC(=O)[C@H](C)NC(=O)CNC(=O)[C@H](Cc2c[nH]c3ccccc23)NC(=O)[C@H](CCC(=O)O)NC(=O)[C@H](CCC(N)=O)NC(=O)[C@H](Cc2c[nH]c3ccccc23)NC(=O)[C@H](C(C)C)NC1=O [Cp01-Asp6Glu] (Ac-ICVWQEWGAHRCT-NH2; disulfide 2-12) | 3.8(1.6) 10^5 M^–1 s^–1 | 18(2) 10^–2 s^–1 | 528 |  | fold affinity drop / weaker affinity compared with Cp01: 2 fold
CC[C@H](C)[C@H](NC(C)=O)C(=O)N[C@H]1CSSC[C@@H](C(=O)N[C@H](C(N)=O)[C@@H](C)O)NC(=O)[C@H](CCCNC(=N)N)NC(=O)[C@H](Cc2c[nH]cn2)NC(=O)[C@H](C)NC(=O)CNC(=O)[C@H](Cc2c[nH]c3ccccc23)NC(=O)[C@H](CCCCCC(=O)O)NC(=O)[C@H](CCC(N)=O)NC(=O)[C@H](Cc2c[nH]c3ccccc23)NC(=O)[C@H](C(C)C)NC1=O [Cp01-Asp6Asu] (Ac-ICVWQ[Asu]WGAHRCT-NH2; disulfide 2-12) | 1.2(0.5) 10^5 M^–1 s^–1 | 23(4) 10^–2 s^–1 |  |  | fold affinity drop / weaker affinity compared with Cp01: 10 fold
CC[C@H](C)[C@H](NC(C)=O)C(=O)N[C@H]1CSSC[C@@H](C(=O)N[C@H](C(N)=O)[C@@H](C)O)NC(=O)[C@H](CCCNC(=N)N)NC(=O)[C@H](Cc2c[nH]cn2)NC(=O)[C@H](C)NC(=O)CNC(=O)[C@H](Cc2c[nH]c3ccccc23)NC(=O)[C@H](CC(=O)O)NC(=O)[C@H](CCC(N)=O)NC(=O)[C@H](Cc2c[nH]c3ccccc23)NC(=O)[C@H](CC(C)C)NC1=O [Cp01-Val3Leu] (Ac-ICLWQDWGAHRCT-NH2; disulfide 2-12) | 2.0(0.5) 10^5 M^–1 s^–1 | 11(1) 10^–2 s^–1 | 552 |  | 
CC[C@@H](C)[C@@H]1NC(=O)[C@@H](NC(=O)[C@@H](NC(=O)[C@H](N)Cc2ccc(O)cc2)[C@@H](C)CC)CSSC[C@@H](C(=O)N(C)[C@H](C(N)=O)[C@@H](C)CC)NC(=O)[C@H](CCCNC(=N)N)NC(=O)[C@H](Cc2c[nH]cn2)NC(=O)[C@H](C)NC(=O)CN(C)C(=O)[C@H](Cc2c[nH]c3ccccc23)NC(=O)[C@H](CC(=O)O)NC(=O)[C@H](CCC(N)=O)NC(=O)[C@H](Cc2cn(C)c3ccccc23)NC1=O [Cp40-Val3aIle] (H-[dY]IC[aIle][Trp(1-Me)]QDW[Sar]AHRC[NMeI]-NH2; disulfide 3-13) | 4.6(0.7) 10^5 M^–1 s^–1 | 0.7(0.3) 10^–2 s^–1 | 15.6 |  | 
CC[C@H](C)[C@H](NC(C)=O)C(=O)N[C@H]1CSSC[C@@H](C(=O)N[C@H](C(N)=O)[C@@H](C)O)NC(=O)[C@H](CCCNC(=N)N)NC(=O)[C@H](Cc2c[nH]cn2)NC(=O)[C@H](C)NC(=O)CNC(=O)[C@H](Cc2c[nH]c3ccccc23)NC(=O)[C@H](CC(=O)O)NC(=O)[C@H](CCCCN)NC(=O)[C@H](Cc2c[nH]c3ccccc23)NC(=O)[C@H](C(C)C)NC1=O [Cp01-Gln5Lys] (Ac-ICVWKDWGAHRCT-NH2; disulfide 2-12) |  |  |  | > 2000 | binding to C3b (result in words) (SPR): no detectable target binding
CC[C@H](C)[C@H](NC(C)=O)C(=O)N[C@H]1CSSC[C@@H](C(=O)N[C@H](C(N)=O)[C@@H](C)O)NC(=O)[C@H](CCCNC(=N)N)NC(=O)[C@H](Cc2c[nH]cn2)NC(=O)[C@H](C)NC(=O)CNC(=O)[C@H](Cc2c[nH]c3ccccc23)NC(=O)[C@H](CC(=O)O)NC(=O)[C@H](CCCN)NC(=O)[C@H](Cc2c[nH]c3ccccc23)NC(=O)[C@H](C(C)C)NC1=O [Cp01-Gln5Orn] (Ac-ICVW[Orn]DWGAHRCT-NH2; disulfide 2-12) |  |  |  | > 2000 | binding to C3b (result in words) (SPR): no detectable target binding
CC[C@H](C)[C@H](NC(C)=O)C(=O)N[C@H]1CSSC[C@@H](C(=O)N[C@H](C(N)=O)[C@@H](C)O)NC(=O)[C@H](CCCNC(=N)N)NC(=O)[C@H](Cc2c[nH]cn2)NC(=O)[C@H](C)NC(=O)CNC(=O)[C@H](Cc2c[nH]c3ccccc23)NC(=O)[C@H](CC(=O)O)NC(=O)[C@H](CCC(N)=O)NC(=O)[C@H](Cc2cn(C)c3ccccc23)NC(=O)[C@H]([C@@H](C)CC)NC1=O [Cp05-Val3Ile] (Ac-ICI[Trp(1-Me)]QDWGAHRCT-NH2; disulfide 2-12) |  |  | 1.5 |  | koff (SPR, read-out: dissociation rate k d): 0.002 s⁻¹
CC[C@H](C)[C@H](NC(C)=O)C(=O)N[C@H]1CSSC[C@@H](C(=O)N[C@H](C(N)=O)[C@@H](C)O)NC(=O)[C@H](CCCNC(=N)N)NC(=O)[C@H](Cc2c[nH]cn2)NC(=O)[C@H](C)NC(=O)CNC(=O)[C@H](Cc2csc3ccccc23)NC(=O)[C@H](CC(=O)O)NC(=O)[C@H](CCC(N)=O)NC(=O)[C@H](Cc2c[nH]c3ccccc23)NC(=O)[C@H](C(C)C)NC1=O [Cp01-Trp7Bta] (Ac-ICVWQD[Bta]GAHRCT-NH2; disulfide 2-12) |  |  |  | > 16000 | binding to C3b (result in words) (SPR, listed as W7Bta): strongly impaired affinity
CC[C@H](C)[C@H](NC(C)=O)C(=O)N[C@H]1CSSC[C@@H](C(=O)N[C@H](C(N)=O)[C@@H](C)O)NC(=O)[C@H](CCCNC(=N)N)NC(=O)[C@H](Cc2c[nH]cn2)NC(=O)[C@H](C)NC(=O)CNC(=O)[C@H](Cc2c[nH]c3ccccc23)NC(=O)[C@H](CC(=O)O)NC(=O)[C@H](CCC(N)=O)NC(=O)[C@H](Cc2c[nH]c3ccccc23)NC(=O)[C@H](Cc2ccccc2)NC1=O [Cp01-Val3Phe] |  |  |  | > 2000 | 
CCC(CC)[C@@H]1NC(=O)[C@@H](NC(=O)[C@@H](NC(=O)[C@H](N)Cc2ccc(O)cc2)[C@@H](C)CC)CSSC[C@@H](C(=O)N(C)[C@H](C(N)=O)[C@@H](C)CC)NC(=O)[C@H](CCCNC(=N)N)NC(=O)[C@H](Cc2c[nH]cn2)NC(=O)[C@H](C)NC(=O)CN(C)C(=O)[C@H](Cc2c[nH]c3ccccc23)NC(=O)[C@H](CC(=O)O)NC(=O)[C@H](CCC(N)=O)NC(=O)[C@H](Cc2cn(C)c3ccccc23)NC1=O [Cp40-Val3Dea] (H-[dY]IC[Nva(3-Et)][Trp(1-Me)]QDW[Sar]AHRC[NMeI]-NH2; disulfide 3-13) | 4.3(0.7) 10^5 M^–1 s^–1 | 0.6(0.1) 10^–2 s^–1 |  |  | 
CC[C@H](C)[C@H](NC(C)=O)C(=O)N[C@H]1CSSC[C@@H](C(=O)N[C@H](C(N)=O)[C@@H](C)O)NC(=O)[C@H](CO)NC(=O)[C@H](Cc2c[nH]cn2)NC(=O)[C@H](C)NC(=O)CNC(=O)[C@H](Cc2c[nH]c3ccccc23)NC(=O)[C@H](CC(=O)O)NC(=O)[C@H](CCC(N)=O)NC(=O)[C@H](Cc2c[nH]c3ccccc23)NC(=O)[C@H](C(C)C)NC1=O [Cp01-Arg11Ser] (Ac-ICVWQDWGAHSCT-NH2; disulfide 2-12) | 3.3(1.2) 10^5 M^–1 s^–1 | 16(3) 10^–2 s^–1 | 529 |  | fold affinity drop / weaker affinity compared with Cp01: ~2 fold
CC[C@H](C)[C@H](NC(C)=O)C(=O)N[C@H]1CSSC[C@@H](C(=O)N[C@H](C(N)=O)[C@@H](C)O)NC(=O)[C@H](CCCNC(=N)N)NC(=O)[C@H](Cc2c[nH]cn2)NC(=O)[C@H](C)NC(=O)CNC(=O)[C@H](Cc2c[nH]c3ccccc23)NC(=O)[C@H](CC(=O)O)NC(=O)[C@H](CCC(N)=O)NC(=O)[C@H](Cc2c[nH]c3ccccc23)NC(=O)[C@H](Cc2c[nH]c3ccccc23)NC1=O [Cp01-Val3Trp] |  |  |  | > 2000 | 
CC[C@H](C)[C@H](NC(C)=O)C(=O)N[C@H]1CSSC[C@@H](C(=O)N[C@H](C(N)=O)[C@@H](C)O)NC(=O)[C@H](CCCNC(=N)N)NC(=O)[C@H](Cc2c[nH]cn2)NC(=O)[C@H](C)NC(=O)CNC(=O)[C@H](Cc2c[nH]c3ccccc23)NC(=O)[C@H](CC(N)=O)NC(=O)[C@H](CCC(N)=O)NC(=O)[C@H](Cc2c[nH]c3ccccc23)NC(=O)[C@H](C(C)C)NC1=O [Cp01-Asp6Asn] (Ac-ICVWQNWGAHRCT-NH2; disulfide 2-12) | 5.4(1.5) 10^5 M^–1 s^–1 | 11(1) 10^–2 s^–1 | 219 |  | 
CC[C@H](C)[C@H](NC(C)=O)C(=O)N[C@H]1CSSC[C@@H](C(=O)N[C@H](C(N)=O)[C@@H](C)O)NC(=O)[C@H](CCCNC(=N)N)NC(=O)[C@H](Cc2c[nH]cn2)NC(=O)[C@H](C)NC(=O)CNC(=O)[C@H](Cc2c[nH]c3ccccc23)NC(=O)[C@H](CC(=O)O)NC(=O)[C@H](CCC(N)=O)NC(=O)[C@H](Cc2c[nH]c3ccccc23)NC(=O)[C@H](C)NC1=O [Cp01-Val3Ala] |  |  |  | > 2000 | 
